According to patent publication US12606541B2, “PPARg modulators and methods of use” (Eisai R&D Management Co., Ltd., priority 2020, dated 2026):

target: T1, His6-TEV-PPARγ-(234-505) (Homo sapiens, UniProt P37231); test: TR-FRET Assay to Measure Co-R Peptide Recruitment to PPARγ; format: biochemical; conditions: Co-R peptide recruitment to PPARγ; read-out: TR-FRET AC50
T1 construct: The His6-TEV-PPARγ-(234-505) protein for assay was expressed and purified; TEV cleavage site (N); made in house
T1 sequence (P37231 234-505): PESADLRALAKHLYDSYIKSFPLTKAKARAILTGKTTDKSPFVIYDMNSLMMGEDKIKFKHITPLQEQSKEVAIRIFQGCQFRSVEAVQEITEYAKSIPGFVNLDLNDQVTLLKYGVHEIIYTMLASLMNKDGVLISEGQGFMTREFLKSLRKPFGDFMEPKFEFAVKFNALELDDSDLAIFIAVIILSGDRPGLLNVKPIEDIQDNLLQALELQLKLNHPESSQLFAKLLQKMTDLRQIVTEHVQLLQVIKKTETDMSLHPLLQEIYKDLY
Method in brief: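 Corepressor recruitment is measured by adding terbium-labeled anti-His antibody and FITC SMRT-ID2 peptide, at 5 and 200 nM final, after a 20-minute room-temperature protein–compound incubation. After one further hour, signal is converted to percent response between DMSO and 500 nM T0070907 wells.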

AC50, > 1000 nM:
COc1cc(-c2cc(C(=O)N3CCC(C#N)(C(=O)NCc4cccc(Cl)c4)CC3)n[nH]2)c(Cl)cn1 [1-[5-(5-chloro-2-methoxypyridin-4-yl)-1H-pyrazole-3-carbonyl]-N-[(3-chlorophenyl)methyl]-4-cyanopiperidine-4-carboxamide]
COc1cc(-c2cc(C(=O)N3CCC(OC)(C(=O)NCc4cccc(Cl)c4)CC3)n[nH]2)c(Cl)cn1 [1-[5-(5-chloro-2-methoxypyridin-4-yl)-1H-pyrazole-3-carbonyl]-N-[(3-chlorophenyl)methyl]-4-methoxypiperidine-4-carboxamide]
CCC1(CNC(=O)C2CCN(C(=O)c3cc(-c4cc(OC)ncc4Cl)[nH]n3)CC2)COC1 [1-[5-(5-chloro-2-methoxypyridin-4-yl)-1H-pyrazole-3-carbonyl]-N-[(3-ethyloxetane-3-yl)methyl]piperidine-4-carboxamide]
COc1cc(-c2cc(C(=O)N3CCC(C(=O)NCC4(F)COC4)CC3)n[nH]2)c(Cl)cn1 [1-[5-(5-chloro-2-methoxypyridin-4-yl)-1H-pyrazole-3-carbonyl]-N-[(3-fluorooxetan-3-yl)methyl]piperidine-4-carboxamide]
COc1cc(-c2cc(C(=O)N3CCC(C(=O)NCC4(C)COC4)CC3)n[nH]2)c(Cl)cn1 [1-[5-(5-chloro-2-methoxypyridin-4-yl)-1H-pyrazole-3-carbonyl]-N-[(3-methyloxetan-3-yl)methyl]piperidine-4-carboxamide]
COc1cc(-c2cc(C(=O)N3CCC(C(=O)NCC4(C)CCOC4)CC3)n[nH]2)c(Cl)cn1 (stereo not drawn) [1-[5-(5-chloro-2-methoxypyridin-4-yl)-1H-pyrazole-3-carbonyl]-N-[(3-methyloxolan-3-yl)methyl]piperidine-4-carboxamide]
COc1cc(-c2cc(C(=O)N3CCC(C(=O)NCC4CC(F)(F)C(=O)N4)CC3)n[nH]2)c(Cl)cn1 (stereo not drawn) [1-[5-(5-chloro-2-methoxypyridin-4-yl)-1H-pyrazole-3-carbonyl]-N-[(4,4-difluoro-5-oxopyrrolidin-2-yl)methyl]piperidine-4-carboxamide]
COc1cc(-c2cc(C(=O)N3CCC(C(=O)NCc4nc(C)c(C)s4)CC3)n[nH]2)c(Cl)cn1 [1-[5-(5-chloro-2-methoxypyridin-4-yl)-1H-pyrazole-3-carbonyl]-N-[(4,5-dimethyl-1,3-thiazol-2-yl)methyl]piperidine-4-carboxamide]
COc1cc(-c2cc(C(=O)N3CCC(C(=O)NCc4c(C)cc(C)[nH]c4=O)CC3)n[nH]2)c(Cl)cn1 [1-[5-(5-chloro-2-methoxypyridin-4-yl)-1H-pyrazole-3-carbonyl]-N-[(4,6-dimethyl-2-oxo-1,2-dihydropyridin-3-yl)methyl]piperidine-4-carboxamide]
COc1cc(-c2cc(C(=O)N3CCC(C(=O)NCc4cc(Cl)ccn4)CC3)n[nH]2)c(Cl)cn1 [1-[5-(5-chloro-2-methoxypyridin-4-yl)-1H-pyrazole-3-carbonyl]-N-[(4-chloropyridin-2-yl)methyl]piperidine-4-carboxamide]
COc1cc(-c2cc(C(=O)N3CCC(C(=O)NCc4cc(C#N)ccn4)CC3)n[nH]2)c(Cl)cn1 [1-[5-(5-chloro-2-methoxypyridin-4-yl)-1H-pyrazole-3-carbonyl]-N-[(4-cyanopyridin-2-yl)methyl]piperidine-4-carboxamide]
COc1cc(-c2cc(C(=O)N3CCC(C(=O)NCc4cc(F)ccn4)CC3)n[nH]2)c(Cl)cn1 [1-[5-(5-chloro-2-methoxypyridin-4-yl)-1H-pyrazole-3-carbonyl]-N-[(4-fluoropyridin-2-yl)methyl]piperidine-4-carboxamide]
COc1cc(-c2cc(C(=O)N3CCC(C(=O)NCC4(O)CCOCC4)CC3)n[nH]2)c(Cl)cn1 [1-[5-(5-chloro-2-methoxypyridin-4-yl)-1H-pyrazole-3-carbonyl]-N-[(4-hydroxyoxan-4-yl)methyl]piperidine-4-carboxamide]
COc1cc(-c2cc(C(=O)N3CCC(C(=O)NCC4CN(C)CCO4)CC3)n[nH]2)c(Cl)cn1 (stereo not drawn) [1-[5-(5-chloro-2-methoxypyridin-4-yl)-1H-pyrazole-3-carbonyl]-N-[(4-methylmorpholin-2-yl)methyl]piperidine-4-carboxamide]
COc1cc(-c2cc(C(=O)N3CCC(C(=O)NCc4cc(C)ccn4)CC3)n[nH]2)c(Cl)cn1 [1-[5-(5-chloro-2-methoxypyridin-4-yl)-1H-pyrazole-3-carbonyl]-N-[(4-methylpyridine-2-yl)methyl]piperidine-4-carboxamide]
COc1cc(-c2cc(C(=O)N3CCC(C(=O)NCc4n[nH]c(=O)c5ccccc45)CC3)n[nH]2)c(Cl)cn1 [1-[5-(5-chloro-2-methoxypyridin-4-yl)-1H-pyrazole-3-carbonyl]-N-[(4-oxo-3,4-dihydrophthalazin-1-yl)methyl]piperidine-4-carboxamide]
COc1cc(-c2cc(C(=O)N3CCC(C(=O)N[C@@H]4CCOc5c(F)ccc(F)c54)CC3)n[nH]2)c(Cl)cn1 [1-[5-(5-chloro-2-methoxypyridin-4-yl)-1H-pyrazole-3-carbonyl]-N-[(4R)-5,8-difluoro-3,4-dihydro-2H-1-benzopyran-4-yl]piperidine-4-carboxamide]
COc1cc(-c2cc(C(=O)N3CCC(C(=O)NCc4noc(C)n4)CC3)n[nH]2)c(Cl)cn1 [1-[5-(5-chloro-2-methoxypyridin-4-yl)-1H-pyrazole-3-carbonyl]-N-[(5-methyl-1,2,4-oxadiazol-3-yl)methyl]piperidine-4-carboxamide]
COc1cc(-c2cc(C(=O)N3CCC(C(=O)NCc4cc(C)on4)CC3)n[nH]2)c(Cl)cn1 [1-[5-(5-chloro-2-methoxypyridin-4-yl)-1H-pyrazole-3-carbonyl]-N-[(5-methyl-1,2-oxazol-3-yl)methyl]piperidine-4-carboxamide]
COc1cc(-c2cc(C(=O)N3CCC(C(=O)NCc4cnc(C)cn4)CC3)n[nH]2)c(Cl)cn1 [1-[5-(5-chloro-2-methoxypyridin-4-yl)-1H-pyrazole-3-carbonyl]-N-[(5-methylpyrazin-2-yl)methyl]piperidine-4-carboxamide]
COc1cc(-c2cc(C(=O)N3CCC(C(=O)NCc4ccc(C#N)nc4)CC3)n[nH]2)c(Cl)cn1 [1-[5-(5-chloro-2-methoxypyridin-4-yl)-1H-pyrazole-3-carbonyl]-N-[(6-cyanopyridin-3-yl)methyl]piperidine-4-carboxamide]
COc1ccc(CNC(=O)C2CCN(C(=O)c3cc(-c4cc(OC)ncc4Cl)[nH]n3)CC2)cn1 [1-[5-(5-chloro-2-methoxypyridin-4-yl)-1H-pyrazole-3-carbonyl]-N-[(6-methoxypyridin-3-yl)methyl]piperidine-4-carboxamide]
COc1cc(-c2cc(C(=O)N3CCC(C(=O)NCc4cccc(C)n4)CC3)n[nH]2)c(Cl)cn1 [1-[5-(5-chloro-2-methoxypyridin-4-yl)-1H-pyrazole-3-carbonyl]-N-[(6-methylpyridin-2-yl)methyl]piperidine-4-carboxamide]
COc1cc(-c2cc(C(=O)N3CCC(C(=O)NCc4ccc(C)nc4)CC3)n[nH]2)c(Cl)cn1 [1-[5-(5-chloro-2-methoxypyridin-4-yl)-1H-pyrazole-3-carbonyl]-N-[(6-methylpyridin-3-yl)methyl]piperidine-4-carboxamide]
